In the NIST ThermoML archive (doi:10.1021/je1013476):
Numbers after ± are expanded uncertainties.

Assays:
[1] = xn = mol fraction of the nth substance listed; conditions: 101 kPa, Liquid; for viscosity: Capillary tube (Ostwald / Ubbelohde) method; for mass density: Vibrating tube method
[2] = excess molar enthalpy (molar enthalpy of mixing); xn = mol fraction of the nth substance listed; conditions: 303.15 K, 101 kPa, Liquid, Calvet calorimetry

CCOC(=O)OCC [diethyl carbonate] + CCCO
[1]
Conditions | mass density [kg/m3] | viscosity [mPa·s]
288.15 K, x1 = 0.05124 | 821.17 ± 0.12 | 2.135 ± 0.021
288.15 K, x1 = 0.07262 | 826.61 ± 0.12 | 2.007 ± 0.019
288.15 K, x1 = 0.1063 | 834.89 ± 0.11 | 1.833 ± 0.018
288.15 K, x1 = 0.1511 | 845.43 ± 0.11 | 1.638 ± 0.016
288.15 K, x1 = 0.2122 | 858.98 ± 0.1 | 1.459 ± 0.014
288.15 K, x1 = 0.2638 | 869.76 ± 0.1 | 1.33 ± 0.013
288.15 K, x1 = 0.31 | 878.92 ± 0.1 | 1.248 ± 0.012
288.15 K, x1 = 0.4016 | 895.92 ± 0.09 | 1.115 ± 0.011
288.15 K, x1 = 0.5147 | 915.01 ± 0.09 | 1 ± 0.01
288.15 K, x1 = 0.5916 | 926.96 ± 0.09 | 0.947 ± 0.009
288.15 K, x1 = 0.5994 | 928.13 ± 0.09 | 0.937 ± 0.009
288.15 K, x1 = 0.6906 | 941.32 ± 0.08 | 0.905 ± 0.009
288.15 K, x1 = 0.7887 | 954.53 ± 0.08 | 0.871 ± 0.009
288.15 K, x1 = 0.8694 | 964.81 ± 0.08 | 0.859 ± 0.009
288.15 K, x1 = 0.9428 | 973.71 ± 0.08 | 0.865 ± 0.009
293.15 K, x1 = 0.04957 | 816.57 ± 0.12 | 1.906 ± 0.018
293.15 K, x1 = 0.1001 | 829.1 ± 0.12 | 1.657 ± 0.016
293.15 K, x1 = 0.2101 | 853.96 ± 0.11 | 1.315 ± 0.013
293.15 K, x1 = 0.3074 | 873.57 ± 0.1 | 1.132 ± 0.011
293.15 K, x1 = 0.4038 | 891.34 ± 0.1 | 1.01 ± 0.01
293.15 K, x1 = 0.5097 | 909.09 ± 0.09 | 0.92 ± 0.009
293.15 K, x1 = 0.6002 | 923.04 ± 0.09 | 0.868 ± 0.009
293.15 K, x1 = 0.6963 | 936.76 ± 0.08 | 0.829 ± 0.008
293.15 K, x1 = 0.8059 | 951.25 ± 0.08 | 0.804 ± 0.008
293.15 K, x1 = 0.8817 | 960.76 ± 0.08 | 0.796 ± 0.008
293.15 K, x1 = 0.9433 | 968.14 ± 0.08 | 0.796 ± 0.008
303.15 K, x1 = 0.05148 | 808.69 ± 0.12 | 1.495 ± 0.015
303.15 K, x1 = 0.1008 | 820.63 ± 0.12 | 1.329 ± 0.013
303.15 K, x1 = 0.2044 | 843.53 ± 0.11 | 1.087 ± 0.011
303.15 K, x1 = 0.3161 | 865.57 ± 0.1 | 0.93 ± 0.009
303.15 K, x1 = 0.4048 | 881.45 ± 0.1 | 0.847 ± 0.008
303.15 K, x1 = 0.4459 | 888.41 ± 0.1 | 0.818 ± 0.008
303.15 K, x1 = 0.6 | 912.35 ± 0.09 | 0.743 ± 0.007
303.15 K, x1 = 0.6892 | 924.91 ± 0.09 | 0.715 ± 0.007
303.15 K, x1 = 0.792 | 938.39 ± 0.08 | 0.697 ± 0.007
303.15 K, x1 = 0.8809 | 949.35 ± 0.08 | 0.692 ± 0.007
303.15 K, x1 = 0.9364 | 955.95 ± 0.08 | 0.692 ± 0.007
313.15 K, x1 = 0.04668 | 798.89 ± 0.13 | 1.214 ± 0.012
313.15 K, x1 = 0.1008 | 811.63 ± 0.12 | 1.071 ± 0.011
313.15 K, x1 = 0.2119 | 835.52 ± 0.12 | 0.885 ± 0.009
313.15 K, x1 = 0.3075 | 854.04 ± 0.11 | 0.783 ± 0.008
313.15 K, x1 = 0.4133 | 872.66 ± 0.1 | 0.71 ± 0.007
313.15 K, x1 = 0.5019 | 886.95 ± 0.1 | 0.668 ± 0.007
313.15 K, x1 = 0.5998 | 901.56 ± 0.1 | 0.637 ± 0.006
313.15 K, x1 = 0.6913 | 914.21 ± 0.09 | 0.618 ± 0.006
313.15 K, x1 = 0.7902 | 926.98 ± 0.09 | 0.607 ± 0.006
313.15 K, x1 = 0.8456 | 933.82 ± 0.09 | 0.608 ± 0.006
313.15 K, x1 = 0.8699 | 936.73 ± 0.09 | 0.606 ± 0.006
313.15 K, x1 = 0.8903 | 939.21 ± 0.08 | 0.607 ± 0.006
313.15 K, x1 = 0.9488 | 946.12 ± 0.08 | 0.61 ± 0.006

[2]
Conditions | excess molar enthalpy [kcal/mol]
x1 = 0.05945 | 0.103 ± 0.00227
x1 = 0.1227 | 0.196 ± 0.0043
x1 = 0.1956 | 0.281 ± 0.00598
x1 = 0.2498 | 0.328 ± 0.00693
x1 = 0.2677 | 0.344 ± 0.00741
x1 = 0.3018 | 0.371 ± 0.00789
x1 = 0.3762 | 0.42 ± 0.00884
x1 = 0.4569 | 0.441 ± 0.00932
x1 = 0.4906 | 0.446 ± 0.00956
x1 = 0.5642 | 0.451 ± 0.00956
x1 = 0.6182 | 0.442 ± 0.00956
x1 = 0.6932 | 0.417 ± 0.00884
x1 = 0.7453 | 0.38 ± 0.00813
x1 = 0.824 | 0.312 ± 0.00669
x1 = 0.872 | 0.248 ± 0.00526
x1 = 0.9168 | 0.174 ± 0.00382

CCOC(=O)OCC [diethyl carbonate] + CCO
[1]
Conditions | mass density [kg/m3] | viscosity [mPa·s]
288.15 K, x1 = 0.05544 | 813.88 ± 0.11 | 1.181 ± 0.011
288.15 K, x1 = 0.1 | 828.53 ± 0.11 | 1.111 ± 0.011
288.15 K, x1 = 0.197 | 856.33 ± 0.1 | 0.996 ± 0.01
288.15 K, x1 = 0.2998 | 881.02 ± 0.09 | 0.917 ± 0.009
288.15 K, x1 = 0.4062 | 902.55 ± 0.09 | 0.864 ± 0.009
288.15 K, x1 = 0.5039 | 919.48 ± 0.08 | 0.838 ± 0.008
288.15 K, x1 = 0.613 | 935.91 ± 0.08 | 0.821 ± 0.008
288.15 K, x1 = 0.6939 | 946.73 ± 0.08 | 0.815 ± 0.008
288.15 K, x1 = 0.7942 | 958.83 ± 0.08 | 0.819 ± 0.008
288.15 K, x1 = 0.8992 | 970.29 ± 0.07 | 0.834 ± 0.008
288.15 K, x1 = 0.9744 | 977.89 ± 0.07 | 0.856 ± 0.008
293.15 K, x1 = 0.05208 | 808.2 ± 0.12 | 1.115 ± 0.011
293.15 K, x1 = 0.09645 | 822.76 ± 0.11 | 1.045 ± 0.01
293.15 K, x1 = 0.1983 | 851.8 ± 0.1 | 0.93 ± 0.009
293.15 K, x1 = 0.2931 | 874.46 ± 0.1 | 0.867 ± 0.009
293.15 K, x1 = 0.4089 | 897.78 ± 0.09 | 0.818 ± 0.008
293.15 K, x1 = 0.4945 | 912.58 ± 0.09 | 0.794 ± 0.008
293.15 K, x1 = 0.6111 | 930.21 ± 0.08 | 0.777 ± 0.008
293.15 K, x1 = 0.6787 | 939.26 ± 0.08 | 0.771 ± 0.008
293.15 K, x1 = 0.7692 | 950.39 ± 0.08 | 0.77 ± 0.008
293.15 K, x1 = 0.8767 | 962.34 ± 0.08 | 0.779 ± 0.008
293.15 K, x1 = 0.9444 | 969.33 ± 0.08 | 0.791 ± 0.008
303.15 K, x1 = 0.04589 | 797.14 ± 0.12 | 0.937 ± 0.009
303.15 K, x1 = 0.09693 | 813.63 ± 0.11 | 0.88 ± 0.009
303.15 K, x1 = 0.1943 | 840.98 ± 0.11 | 0.799 ± 0.008
303.15 K, x1 = 0.2843 | 862.32 ± 0.1 | 0.747 ± 0.007
303.15 K, x1 = 0.4098 | 887.33 ± 0.09 | 0.703 ± 0.007
303.15 K, x1 = 0.5128 | 904.7 ± 0.09 | 0.686 ± 0.007
303.15 K, x1 = 0.6176 | 920.01 ± 0.09 | 0.678 ± 0.007
303.15 K, x1 = 0.6907 | 929.62 ± 0.08 | 0.675 ± 0.007
303.15 K, x1 = 0.7896 | 941.46 ± 0.08 | 0.675 ± 0.007
303.15 K, x1 = 0.8863 | 951.96 ± 0.08 | 0.681 ± 0.007
303.15 K, x1 = 0.9676 | 960.23 ± 0.08 | 0.694 ± 0.007
313.15 K, x1 = 0.04956 | 789.32 ± 0.12 | 0.761 ± 0.008
313.15 K, x1 = 0.09649 | 804.16 ± 0.12 | 0.715 ± 0.007
313.15 K, x1 = 0.207 | 834.28 ± 0.11 | 0.647 ± 0.007
313.15 K, x1 = 0.2847 | 852.21 ± 0.11 | 0.618 ± 0.006
313.15 K, x1 = 0.3982 | 874.66 ± 0.1 | 0.591 ± 0.006
313.15 K, x1 = 0.5049 | 892.56 ± 0.1 | 0.578 ± 0.006
313.15 K, x1 = 0.6079 | 907.66 ± 0.09 | 0.574 ± 0.006
313.15 K, x1 = 0.6227 | 909.67 ± 0.09 | 0.573 ± 0.006
313.15 K, x1 = 0.6895 | 918.3 ± 0.09 | 0.575 ± 0.006
313.15 K, x1 = 0.7826 | 929.4 ± 0.09 | 0.58 ± 0.006
313.15 K, x1 = 0.8924 | 941.3 ± 0.08 | 0.594 ± 0.006
313.15 K, x1 = 0.9563 | 947.79 ± 0.08 | 0.606 ± 0.006

[2]
Conditions | excess molar enthalpy [kcal/mol]
x1 = 0.06432 | 0.0943 ± 0.00206
x1 = 0.1113 | 0.152 ± 0.00335
x1 = 0.1833 | 0.226 ± 0.00478
x1 = 0.2439 | 0.276 ± 0.00598
x1 = 0.3034 | 0.317 ± 0.00669
x1 = 0.3739 | 0.356 ± 0.00765
x1 = 0.4258 | 0.378 ± 0.00813
x1 = 0.5066 | 0.395 ± 0.00837
x1 = 0.5445 | 0.395 ± 0.00837
x1 = 0.64 | 0.39 ± 0.00837
x1 = 0.7134 | 0.366 ± 0.00789
x1 = 0.7663 | 0.335 ± 0.00717
x1 = 0.8243 | 0.285 ± 0.00621
x1 = 0.8998 | 0.189 ± 0.00406
x1 = 0.9557 | 0.0946 ± 0.00208
